How the values were obtained:
SOS = test: Guanine nucleotide-exchange factor assay (mantdGDP fluorescence); assay type: biochemical; conditions: 5 µM KRas1-169, 10 µM mantdGDP, 0.25 or 0.5 µM SOS
Protocol: SOS-catalysed nucleotide exchange was monitored at 25 °C in a FluoroMax-3 spectrofluorometer (excitation at 360 nm, emission at 440 nm) in 20 mM HEPES (pH 7.5), 100 mM NaCl, 2 mM MgCl2, and 1 mM TCEP. 5 µM KRas1-169 was mixed with 10 µM mantdGDP and subsequently with different concentrations of SOS (0.25 µM and 0.5 µM) (Figure 3A; Figure 3—figure supplement 1).

pcRafS338 = test: Electroporation into HeLa cells, western blot quantification; assay type: cell-based, human; conditions: for pcRaf mean fold change: mean of cell lysates
Protocol: (§1) HeLa cells were obtained from the American Type Culture Collection (ATCC) and were cultured in DMEM medium (Gibco) supplemented with 10% fetal bovine serum (FBS) (PAN-Biotech) and 1% penicillin/streptomycin (Gibco). Cells were cultured in a humidified incubator at 37 °C in the presence of 5% CO2. The identity of the cells was validated by STR profiling and the cells were tested negative for mycoplasma contamination.
(§2) Electroporation of full-length KRas constructs (KRasWT, KRasG13C, KRasG13C-edaGDP, KRasG13C:acetyledaGDP and KRasG13C-edaGppCp) was performed based on the protocol described by [Alex et al., 2019] using the Neon Transfection System Kit (Thermo Fisher). For electroporation, 3 million cells per experiment were harvested by trypsinization, washed with PBS, and resuspended in 85 µL of the electroporation buffer R (Thermo Fisher). Increasing amounts of recombinant protein samples for each construct (0, 50, 100, 200 and 300 µg) were diluted 1:1 in buffer R followed by the addition of 30 µL of this protein master mix to the cell suspension. This cellular slurry was loaded into a […] Neon Pipette Tip (Thermo Fisher) and electroporated with 2x35 ms pulses at 1000 V. After electroporation, the cells were washed twice with PBS (15 mL) to remove non-internalized extracellular protein and the cell pellet was resuspended in 2 mL complete growth media. Cells were transferred into six-well tissue culture plates (Sarstedt) and incubated for 24 hr at 37 °C and 5% CO2 in a humidified incubator for recovery before being processed for western blotting analysis.
(§3) After recovery of the electroporation, cells were washed twice with ice-cold PBS and lysed in 100 µL of phosphatase and protease inhibitor containing RIPA buffer (Cell Signaling Technology). Cells were incubated on ice for 30 min and then harvested by scraping followed by centrifugation at 14,000 rpm for 10 min at 4 °C. Protein concentrations were determined using the Pierce BCA protein assay (Thermo) following the manufacturer’s recommended procedure. Equal amounts of protein (10 µg) were analyzed by SDS-PAGE and transferred to Immobilon-FL PVDF membranes (Merck Millipore) using Pierce 1-step transfer buffer (Thermo) and the Pierce Power Blotter (Thermo). Membranes were washed with ddH2O for 5 min, blocked with OdysseyBlocking Buffer TBS (Li-Cor) for 1 hr at room temperature and then incubated with primary antibodies diluted in OdysseyBlocking Buffer TBS overnight at 4 °C with gentle agitation. KRas (Sigma Aldrich, SAB1404011-100UG), pcRafS338 (CST, 9427), tAkt1 (CST, 2938), pAktS473 (CST, 4060), tErk (CST, 4696), pErkT202/Y204 (CST, 4370), pS6S235/236 (CST, 4858), and β-actin (CST, 4970/Sigma-Aldrich, A5441) antibodies were used to detect the individual proteins. After primary antibody incubation, membranes were washed three times with TBS-T (50 mM Tris, 150 mM NaCl, 0.05% Tween 20, pH 7.4) for 5 min before being incubated with secondary antibodies (anti-mouse IgG (H+L) (DyLight 680 Conjugate) (CST, 5470) / anti-rabbit IgG (H+L) (DyLight 800 4 X PEG Conjugate) (CST, 5151)) diluted in OdysseyBlocking Buffer TBS for 1 hr at room temperature with gentle agitation. After secondary antibody incubation, the membranes were washed three times for 5 min with TBS-T and then scanned using an OdysseyCLx imaging system (Li-Cor). Quantification of protein levels from western blots was performed using Empiria Studio (Li-Cor) (Figure 3B, C, Figure 3—figure supplements 6–9).

pS6S235/236 = test: as above; assay type: cell-based, human; conditions: for pS6 mean fold change: mean of cell lysates
Protocol: as §1, §2, §3

pErkT202/Y204 = test: as above; assay type: cell-based, human; conditions: for pErk mean fold change: mean of cell lysates
Protocol: as §1, §2, §3

pAktS473 = test: as above; assay type: cell-based, human; conditions: for pAkt mean fold change: mean of cell lysates
Protocol: as §1, §2, §3

tErk = test: as above; assay type: cell-based, human; conditions: for tErk mean fold change: mean of cell lysates
Protocol: as §1, §2, §3

tAkt1 = test: as above; assay type: cell-based, human; conditions: for tAkt mean fold change: mean of cell lysates
Protocol: as §1, §2, §3

[1] = tested on: Ras pathway (pcRaf, pAkt, pErk, pS6); test: Electroporation into HeLa cells, western blot of downstream signalling; assay type: cell-based, human; conditions: electroporation of 50-300 µg protein
Protocol: as §1, §2
After recovery of the electroporation, cells were washed twice with ice-cold PBS and lysed in 100 µL of phosphatase and protease inhibitor containing RIPA buffer (Cell Signaling Technology). Cells were incubated on ice for 30 min and then harvested by scraping followed by centrifugation at 14,000 rpm for 10 min at 4 °C. Protein concentrations were determined using the Pierce BCA protein assay (Thermo) following the manufacturer’s recommended procedure. Equal amounts of protein (10 µg) were analyzed by SDS-PAGE and transferred to Immobilon-FL PVDF membranes (Merck Millipore) using Pierce 1-step transfer buffer (Thermo) and the Pierce Power Blotter (Thermo). Membranes were washed with ddH2O for 5 min, blocked with OdysseyBlocking Buffer TBS (Li-Cor) for 1 hr at room temperature and then incubated with primary antibodies diluted in OdysseyBlocking Buffer TBS overnight at 4 °C with gentle agitation. […] Quantification of protein levels from western blots was performed using Empiria Studio (Li-Cor) (Figure 3B, C, Figure 3—figure supplements 6–9).

KRasG13C:acetyledaGDP: KRasG13C non-covalently loaded with acetyledaGDP, control
SOS-catalysed nucleotide exchange (SOS): efficiently catalysed nucleotide exchange
pcRaf fold change (pcRafS338; 50 µg, Cell lysate 1): 8.73
pcRaf fold change (pcRafS338; 50 µg, Cell lysate 2): 1.10
pcRaf fold change (pcRafS338; 50 µg, Cell lysate 3): 15.70
pcRaf mean fold change (pcRafS338; 50 µg): 8.51
pcRaf fold change (pcRafS338; 100 µg, Cell lysate 1): 8.39
pcRaf fold change (pcRafS338; 100 µg, Cell lysate 2): 1.51
pcRaf fold change (pcRafS338; 100 µg, Cell lysate 3): 22.70
pcRaf mean fold change (pcRafS338; 100 µg): 10.87
pcRaf fold change (pcRafS338; 200 µg, Cell lysate 1): 13.70
pcRaf fold change (pcRafS338; 200 µg, Cell lysate 2): 2.17
pcRaf fold change (pcRafS338; 200 µg, Cell lysate 3): 32.40
pcRaf mean fold change (pcRafS338; 200 µg): 16.09
pcRaf fold change (pcRafS338; 300 µg, Cell lysate 1): 10.10
pcRaf fold change (pcRafS338; 300 µg, Cell lysate 2): 3.88
pcRaf fold change (pcRafS338; 300 µg, Cell lysate 3): 30.30
pcRaf mean fold change (pcRafS338; 300 µg): 14.76
pS6 fold change (pS6S235/236; 50 µg, Cell lysate 1): 1.20
pS6 fold change (pS6S235/236; 50 µg, Cell lysate 2): 4.69
pS6 fold change (pS6S235/236; 50 µg, Cell lysate 3): 4.24
pS6 mean fold change (pS6S235/236; 50 µg): 3.38
pS6 fold change (pS6S235/236; 100 µg, Cell lysate 1): 1.62
pS6 fold change (pS6S235/236; 100 µg, Cell lysate 2): 7.62
pS6 fold change (pS6S235/236; 100 µg, Cell lysate 3): 3.73
pS6 mean fold change (pS6S235/236; 100 µg): 4.32
pS6 fold change (pS6S235/236; 200 µg, Cell lysate 1): 3.38
pS6 fold change (pS6S235/236; 200 µg, Cell lysate 2): 9.20
pS6 fold change (pS6S235/236; 200 µg, Cell lysate 3): 7.24
pS6 mean fold change (pS6S235/236; 200 µg): 6.61
pS6 fold change (pS6S235/236; 300 µg, Cell lysate 1): 2.82
pS6 fold change (pS6S235/236; 300 µg, Cell lysate 2): 9.13
pS6 fold change (pS6S235/236; 300 µg, Cell lysate 3): 7.42
pS6 mean fold change (pS6S235/236; 300 µg): 6.46
pErk fold change (pErkT202/Y204; 50 µg, Cell lysate 1): 3.76
pErk fold change (pErkT202/Y204; 50 µg, Cell lysate 2): 14.50
pErk fold change (pErkT202/Y204; 50 µg, Cell lysate 3): 5.88
pErk mean fold change (pErkT202/Y204; 50 µg): 8.05
pErk fold change (pErkT202/Y204; 100 µg, Cell lysate 1): 5.77
pErk fold change (pErkT202/Y204; 100 µg, Cell lysate 2): 17.10
pErk fold change (pErkT202/Y204; 100 µg, Cell lysate 3): 6.22
pErk mean fold change (pErkT202/Y204; 100 µg): 9.70
pErk fold change (pErkT202/Y204; 200 µg, Cell lysate 1): 14.00
pErk fold change (pErkT202/Y204; 200 µg, Cell lysate 2): 22.30
pErk fold change (pErkT202/Y204; 200 µg, Cell lysate 3): 9.35
pErk mean fold change (pErkT202/Y204; 200 µg): 15.22
pErk fold change (pErkT202/Y204; 300 µg, Cell lysate 1): 17.00
pErk fold change (pErkT202/Y204; 300 µg, Cell lysate 2): 29.30
pErk fold change (pErkT202/Y204; 300 µg, Cell lysate 3): 10.30
pErk mean fold change (pErkT202/Y204; 300 µg): 18.87
pAkt fold change (pAktS473; 50 µg, Cell lysate 1): 0.68
pAkt fold change (pAktS473; 50 µg, Cell lysate 2): 2.89
pAkt fold change (pAktS473; 50 µg, Cell lysate 3): 3.02
pAkt mean fold change (pAktS473; 50 µg): 2.20
pAkt fold change (pAktS473; 100 µg, Cell lysate 1): 0.79
pAkt fold change (pAktS473; 100 µg, Cell lysate 2): 4.04
pAkt fold change (pAktS473; 100 µg, Cell lysate 3): 4.42
pAkt mean fold change (pAktS473; 100 µg): 3.08
pAkt fold change (pAktS473; 200 µg, Cell lysate 1): 1.19
pAkt fold change (pAktS473; 200 µg, Cell lysate 2): 9.05
pAkt fold change (pAktS473; 200 µg, Cell lysate 3): 6.20
pAkt mean fold change (pAktS473; 200 µg): 5.48
pAkt fold change (pAktS473; 300 µg, Cell lysate 1): 2.16
pAkt fold change (pAktS473; 300 µg, Cell lysate 2): 13.30
pAkt fold change (pAktS473; 300 µg, Cell lysate 3): 3.81
pAkt mean fold change (pAktS473; 300 µg): 6.42
tErk fold change (tErk; 50 µg, Cell lysate 1): 0.88
tErk fold change (tErk; 50 µg, Cell lysate 2): 0.96
tErk fold change (tErk; 50 µg, Cell lysate 3): 0.92
tErk mean fold change (tErk; 50 µg): 0.92
tErk fold change (tErk; 100 µg, Cell lysate 1): 0.68
tErk fold change (tErk; 100 µg, Cell lysate 2): 0.93
tErk fold change (tErk; 100 µg, Cell lysate 3): 0.86
tErk mean fold change (tErk; 100 µg): 0.82
tErk fold change (tErk; 200 µg, Cell lysate 1): 0.80
tErk fold change (tErk; 200 µg, Cell lysate 2): 0.93
tErk fold change (tErk; 200 µg, Cell lysate 3): 0.97
tErk mean fold change (tErk; 200 µg): 0.90
tErk fold change (tErk; 300 µg, Cell lysate 1): 0.62
tErk fold change (tErk; 300 µg, Cell lysate 2): 0.90
tErk fold change (tErk; 300 µg, Cell lysate 3): 1.12
tErk mean fold change (tErk; 300 µg): 0.88
tAkt fold change (tAkt1; 50 µg, Cell lysate 1): 0.92
tAkt fold change (tAkt1; 50 µg, Cell lysate 2): 2.42
tAkt fold change (tAkt1; 50 µg, Cell lysate 3): 1.53
tAkt mean fold change (tAkt1; 50 µg): 1.62
tAkt fold change (tAkt1; 100 µg, Cell lysate 1): 1.23
tAkt fold change (tAkt1; 100 µg, Cell lysate 2): 2.03
tAkt fold change (tAkt1; 100 µg, Cell lysate 3): 1.95
tAkt mean fold change (tAkt1; 100 µg): 1.74
tAkt fold change (tAkt1; 200 µg, Cell lysate 1): 1.36
tAkt fold change (tAkt1; 200 µg, Cell lysate 2): 3.63
tAkt fold change (tAkt1; 200 µg, Cell lysate 3): 1.80
tAkt mean fold change (tAkt1; 200 µg): 2.26
tAkt fold change (tAkt1; 300 µg, Cell lysate 1): 0.81
tAkt fold change (tAkt1; 300 µg, Cell lysate 2): 4.18
tAkt fold change (tAkt1; 300 µg, Cell lysate 3): 2.17
tAkt mean fold change (tAkt1; 300 µg): 2.39
downstream signalling (pcRaf, pAkt, pErk, pS6) [1]: activation of the Ras pathway comparable to KRasG13C was observed

Source: article PMC10042540, “Targeting oncogenic KRasG13C with nucleotide-based covalent inhibitors” (eLife, 2023)
